“Also recorded” adds a separate entry of the source.
What was measured:
human 15-PGDH [1] = target: T1, human 15-PGDH (Homo sapiens, UniProt P15428); test: Compound titrations of re-synthesized inhibitors in the kinetic assay; format: biochemical; details: 10 nM 15-PGDH, 30 µM PGE2, 200 µM NAD+, 25°C, lower percent substrate conversion; read-out: IC50, re-synthesized compounds
T1 construct: comprising residues 3–256 of the human HPGD gene (GenBank identifier: 1203982); His6 (GHHHHHH, behind the TEV site) (C, cleaved yes); made in house; host or cells: E. coli BL21(DE3)-R3
T1 sequence (P15428 3-256): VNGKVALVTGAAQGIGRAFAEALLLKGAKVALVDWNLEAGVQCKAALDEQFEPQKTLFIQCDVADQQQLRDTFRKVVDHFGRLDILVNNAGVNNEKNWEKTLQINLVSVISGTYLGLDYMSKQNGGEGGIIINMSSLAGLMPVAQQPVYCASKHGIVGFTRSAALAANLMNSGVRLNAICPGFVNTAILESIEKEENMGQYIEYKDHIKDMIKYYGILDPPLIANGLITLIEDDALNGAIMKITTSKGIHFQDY
Protocol: (§1) Kinetic studies were performed in 100 mM Tris buffer pH 8.0, containing 0.01% Tween-20 and 10 nM 15-PGDH enzyme. […] All inhibitor compounds were dissolved in 10% (v/v) DMSO at varying concentrations from which they were applied at 1∶5 ratio (resulting in a final concentration of 2% (v/v) DMSO in all assays). For each experiment an aliquot of purified enzyme was thawed freshly and pre-diluted to 10 µM in buffer I (5 mM Tris/HCl, pH 8.0, 150 mM NaCl, 0.01% Tween-20). All experiments were performed in white 384-well PCR microplates (Bio-Rad Laboratories, Inc.) in final assay volumes of 20 µL. Twelve-point compound titrations were set up from serially diluted stock solutions in 10% (v/v) DMSO. […] The initial rates recorded in compound titrations were plotted against -log[compound], and non-linear regression (Levenberg-Marquardt) fitting of the dose-response curve to the Hill equation [47] was performed to derive the IC50, using PRISM 5.0 (GraphPad Software, Inc.). For substrate/cofactor titrations, curves with initial rates plotted against the concentration of substrate or cofactor were fitted to the Michaelis-Menten equation, to derive maximal activities, V max, and Michaelis constants, K m. Fitting qualities were judged from the goodness of fit (R^2>0.98).

human 15-PGDH [2] = target: T1, human 15-PGDH; test: Substrate (PGE2) and cofactor (NAD+) titrations, mechanism of action, global fitting; format: biochemical; details: for Competitive (CM), fit residual Chi^2 value / Mixed-mode (MM), fit residual Chi^2 value / Noncompetitive (NM), fit residual Chi^2 value / Uncompetitive (UM), fit residual Chi^2 value: global fitting; for Titration of NAD^+ K m / Titration of NAD^+ V max [µmol/(min×mg)] / Titration of NAD^+ k cat/K m[×10^6] / Titration of NAD^+ k cat[1/sec]: 30 µM PGE2
Protocol: as §1

HSD17β4 = target: T2, HSD17β4 (Homo sapiens, UniProt P51659); test: Selectivity screen, type-4 hydroxysteroid dehydrogenase (PubChem Assay ID 893)
T2 sequence (P51659 1-736): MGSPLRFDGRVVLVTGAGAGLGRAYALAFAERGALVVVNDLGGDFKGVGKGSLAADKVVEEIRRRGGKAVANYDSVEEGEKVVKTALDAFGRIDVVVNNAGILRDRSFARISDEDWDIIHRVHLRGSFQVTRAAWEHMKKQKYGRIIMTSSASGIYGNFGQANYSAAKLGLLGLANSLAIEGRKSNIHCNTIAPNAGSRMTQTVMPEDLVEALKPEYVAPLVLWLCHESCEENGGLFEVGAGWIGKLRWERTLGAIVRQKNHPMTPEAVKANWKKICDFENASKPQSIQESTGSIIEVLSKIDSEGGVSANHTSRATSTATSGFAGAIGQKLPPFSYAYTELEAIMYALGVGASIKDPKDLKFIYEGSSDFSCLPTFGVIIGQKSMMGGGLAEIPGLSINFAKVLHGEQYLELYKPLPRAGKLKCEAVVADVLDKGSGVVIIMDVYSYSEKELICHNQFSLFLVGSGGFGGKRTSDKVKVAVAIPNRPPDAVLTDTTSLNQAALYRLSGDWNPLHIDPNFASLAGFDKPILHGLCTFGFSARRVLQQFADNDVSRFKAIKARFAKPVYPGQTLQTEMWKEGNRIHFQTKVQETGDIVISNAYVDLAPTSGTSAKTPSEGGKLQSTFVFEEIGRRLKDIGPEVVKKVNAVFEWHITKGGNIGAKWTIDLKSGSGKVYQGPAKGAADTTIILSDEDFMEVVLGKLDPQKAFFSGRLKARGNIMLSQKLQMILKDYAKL
Protocol: The list also includes two SDR enzymes, hydroxyacyl dehydrogenase (HADH2, also known as type-10 hydroxysteroid dehydrogenase, HSD17β10; PubChem Assay ID 886) and type-4 hydroxysteroid dehydrogenase (HSD17β4; PubChem Assay ID 893), and a medium-chain dehydrogenase/reductase (MDR), aldehyde dehydrogenase 1 (ALDH1A1; PubChem Assay ID 1030), each of which was tested using a similar experimental protocol to that used for 15-PGDH.

[3] = PGE2 titration, inhibitor 10 nM
[4] = NAD+ titration, inhibitor 20 nM

Cc1cc(-c2nnc3n2CCCCC3)c(C)n1-c1ccccc1 [Compound 72]
IC50 (human 15-PGDH [1]): 15 ± 1.2 nM | Sum-of-squares F-test p, NM vs. MM (human 15-PGDH [2]; PGE2 titration): NM vs. MM:p = 0.3515 | effect on the K m (human 15-PGDH [2]; PGE2 titration, in words): no effect | decrease of V max (human 15-PGDH [2]; [3]): approximately 50% | Competitive (CM), fit residual Chi^2 value (human 15-PGDH [2]; PGE2 titration): 0.9299 | Mixed-mode (MM), fit residual Chi^2 value (human 15-PGDH [2]; PGE2 titration): 0.9736 | Noncompetitive (NM), fit residual Chi^2 value (human 15-PGDH [2]; PGE2 titration): 0.9734 | Uncompetitive (UM), fit residual Chi^2 value (human 15-PGDH [2]; PGE2 titration): 0.9680 | mode of inhibition with respect to the substrate PGE2 (human 15-PGDH [2]; in words): noncompetitive or mixed-type | Titration of PGE2 K m (human 15-PGDH [2]; inhibitor 4.0 nM): 5.6 ± 1.1 µM | Titration of PGE2 V max[µmol/(min×mg)] (human 15-PGDH [2]; inhibitor 4.0 nM): 22.8 µmol/min/mg | Titration of PGE2 k cat/K m[×10^6] (human 15-PGDH [2]; inhibitor 4.0 nM): 2.0 ×10^6 | Titration of PGE2 k cat[1/sec] (human 15-PGDH [2]; inhibitor 4.0 nM): 11.1 ± 0.5 s⁻¹ | Titration of PGE2 K m (human 15-PGDH [2]; inhibitor 10.0 nM): 6.4 ± 0.6 µM | Titration of PGE2 V max[µmol/(min×mg)] (human 15-PGDH [2]; inhibitor 10.0 nM): 15.4 µmol/min/mg | Titration of PGE2 k cat/K m[×10^6] (human 15-PGDH [2]; inhibitor 10.0 nM): 1.2 ×10^6 | Titration of PGE2 k cat[1/sec] (human 15-PGDH [2]; inhibitor 10.0 nM): 7.5 ± 0.2 s⁻¹ | IC50 (HSD17β4): > 57500 nM

Cc1cccc(-n2cnc3cc(C(=O)N4CCCCC4)ccc32)c1 [Compound 13, [1-(3-methylphenyl)-1H-benzimidazol-5-yl)(piperidin-1-yl)methanone]
IC50 (human 15-PGDH [1]): 7.9 ± 0.8 nM | decrease of K m for NAD+ (human 15-PGDH [2]; [4]): ~45% | decrease of V max (human 15-PGDH [2]; [4]): approximately 60% | Sum-of-squares F-test p, UM vs. MM (human 15-PGDH [2]; NAD^+ titration): UM vs. MM:p = 0.0654 | Sum-of-squares F-test p, NM vs. MM (human 15-PGDH [2]; PGE2 titration): NM vs. MM:p = 0.0017 | Sum-of-squares F-test p, UM vs. MM (human 15-PGDH [2]; PGE2 titration): UM vs. MM:p = 0.0133 | decrease of V max (human 15-PGDH [2]; [3]): 25% | V max relative to no inhibitor (human 15-PGDH [2]; PGE2 titration, inhibitor 20 nM, in words): less than half | Preferred mode of inhibition (human 15-PGDH [2]; PGE2 titration, rejection threshold p = 0.05): MM (MM, mixed-mode inhibition) | Competitive (CM), fit residual Chi^2 value (human 15-PGDH [2]; NAD^+ titration): 0.8764 | Mixed-mode (MM), fit residual Chi^2 value (human 15-PGDH [2]; NAD^+ titration): 0.9675 | Noncompetitive (NM), fit residual Chi^2 value (human 15-PGDH [2]; NAD^+ titration): 0.9655 | Uncompetitive (UM), fit residual Chi^2 value (human 15-PGDH [2]; NAD^+ titration): 0.9664 | Competitive (CM), fit residual Chi^2 value (human 15-PGDH [2]; PGE2 titration): 0.8669 | Mixed-mode (MM), fit residual Chi^2 value (human 15-PGDH [2]; PGE2 titration): 0.9797 | Noncompetitive (NM), fit residual Chi^2 value (human 15-PGDH [2]; PGE2 titration): 0.9777 | Uncompetitive (UM), fit residual Chi^2 value (human 15-PGDH [2]; PGE2 titration): 0.9784 | mode of inhibition with respect to the cofactor NAD+ (human 15-PGDH [2]; in words): uncompetitively | mode of inhibition with respect to the substrate PGE2 (human 15-PGDH [2]; in words): noncompetitive, uncompetitive or mixed-modes; also recorded: noncompetitively or in a mixed-type mode | Titration of PGE2 K m (human 15-PGDH [2]; inhibitor 10.0 nM): 3.7 ± 0.5 µM | Titration of PGE2 V max[µmol/(min×mg)] (human 15-PGDH [2]; inhibitor 10.0 nM): 21.3 µmol/min/mg | Titration of PGE2 k cat/K m[×10^6] (human 15-PGDH [2]; inhibitor 10.0 nM): 2.8 ×10^6 | Titration of PGE2 k cat[1/sec] (human 15-PGDH [2]; inhibitor 10.0 nM): 10.3 ± 0.3 s⁻¹ | Titration of NAD^+ K m (human 15-PGDH [2]; inhibitor 10.0 nM): 10.7 ± 0.6 µM | Titration of NAD^+ V max [µmol/(min×mg)] (human 15-PGDH [2]; inhibitor 10.0 nM): 17.5 µmol/min/mg | Titration of NAD^+ k cat/K m[×10^6] (human 15-PGDH [2]; inhibitor 10.0 nM): 0.8 ×10^6 | Titration of NAD^+ k cat[1/sec] (human 15-PGDH [2]; inhibitor 10.0 nM): 8.5 ± 0.1 s⁻¹ | Titration of PGE2 K m (human 15-PGDH [2]; inhibitor 20.0 nM): 2.8 ± 0.4 µM | Titration of PGE2 V max[µmol/(min×mg)] (human 15-PGDH [2]; inhibitor 20.0 nM): 12.6 µmol/min/mg | Titration of PGE2 k cat/K m[×10^6] (human 15-PGDH [2]; inhibitor 20.0 nM): 2.1 ×10^6 | Titration of PGE2 k cat[1/sec] (human 15-PGDH [2]; inhibitor 20.0 nM): 6.1 ± 0.2 s⁻¹ | Titration of NAD^+ K m (human 15-PGDH [2]; inhibitor 20.0 nM): 8.9 ± 0.8 µM | Titration of NAD^+ V max [µmol/(min×mg)] (human 15-PGDH [2]; inhibitor 20.0 nM): 8.2 µmol/min/mg | Titration of NAD^+ k cat/K m[×10^6] (human 15-PGDH [2]; inhibitor 20.0 nM): 0.4 ×10^6 | Titration of NAD^+ k cat[1/sec] (human 15-PGDH [2]; inhibitor 20.0 nM): 4.0 ± 0.1 s⁻¹ | IC50 (HSD17β4): > 57500 nM

From article PMC2970562, “High-Affinity Inhibitors of Human NAD^+-Dependent 15-Hydroxyprostaglandin Dehydrogenase: Mechanisms of Inhibition and Structure-Activity Relationships” (PLoS ONE, 2010)
